Assay results: ChEMBL document CHEMBL5137015, “Design, synthesis, and evaluation of a novel series of mono-indolylbenzoquinones derivatives for the potential treatment of breast cancer” (Eur J Med Chem, 2022)
The source made the active and inactive calls. The calls are words filed in the database; no cut-off is given here.

Columns and labels:
[1] = tested on: HeLa; test: Antiproliferative activity against human HeLa cells assessed as inhibition of cell growth by MTT assay; format: functional, cell-based
[2] = tested on: MDA-MB-231; test: Antiproliferative activity against human MDA-MB-231 cells assessed as inhibition of cell growth by MTT assay; format: functional, cell-based
[3] = tested on: A549; test: Antiproliferative activity against human A549 cells assessed as inhibition of cell growth by MTT assay; format: functional, cell-based
[4] = tested on: MDA-MB-231; test: Induction of cell cycle arrest in human MDA-MB-231 cells assessed as increase in G2 phase cells at 10 uM incubated for 24 hrs by PI staining based flow cytometric analysis (reference value: 8.95%); format: functional
[5] = tested on: MDA-MB-231; test: Induction of apoptosis in human MDA-MB-231 cells assessed as apoptotic cells at 10 uM incubated for 24 hrs by Annexin V-FITC/propidium iodide staining based flow cytometric method (reference value: 5.68%); format: functional
[6] = tested on: MDA-MB-231; test: Induction of cell cycle arrest in human MDA-MB-231 cells assessed as decrease in G1 phase cells at 10 uM incubated for 24 hrs by PI staining based flow cytometric analysis (reference value: 74.44%); format: functional; design: scale not given: the % may be the effect or the level left
[7] = tested on: MDA-MB-231; test: Induction of cell cycle arrest in human MDA-MB-231 cells assessed as decrease in S phase cells at 10 uM incubated for 24 hrs by PI staining based flow cytometric analysis (reference value: 16.61%); format: functional; design: scale not given: the % may be the effect or the level left
[8] = tested on: 4T1; test: Antitumor activity against mouse 4T1 cells implanted in Balb/c mouse assessed as apoptotic rate of dissected tumor cell at 50 mg/kg administered intratumorally every four days for 14 days in the presence of liquid cyanoacrylate by flow cytometric analysis (reference value: 64.83%); format: functional; settings: route it(Intratumoral), time 14 day
[9] = tested on: 4T1; test: Antitumor activity against mouse 4T1 cells implanted in Balb/c mouse assessed as tumor growth inhibition at 50 mg/kg administered intratumorally every four days for 14 days in the presence of liquid cyanoacrylate relative to control; format: functional; settings: 4T1, 336 h, route it(Intratumoral), time 14 day, read-out: TGI
[10] = Toxicity in Balb/c mouse implanted with mouse 4T1 cells assessed as heart lesions at 50 mg/kg administered intratumorally every four days for 14 days in the presence of liquid cyanoacrylate by H&E staining based histopathological analysis; format: organism-based; settings: in vivo, other, 336 h, route it(Intratumoral), time 14 day
[11] = Toxicity in Balb/c mouse implanted with mouse 4T1 cells assessed as lung lesions at 50 mg/kg administered intratumorally every four days for 14 days in the presence of liquid cyanoacrylate by H&E staining based histopathological analysis; format: organism-based; settings: in vivo, other, 336 h, route it(Intratumoral), time 14 day
[12] = Toxicity in Balb/c mouse implanted with mouse 4T1 cells assessed as spleen lesions at 50 mg/kg administered intratumorally every four days for 14 days in the presence of liquid cyanoacrylate by H&E staining based histopathological analysis; format: organism-based; settings: in vivo, other, 336 h, route it(Intratumoral), time 14 day
[13] = Toxicity in Balb/c mouse implanted with mouse 4T1 cells assessed as liver lesions at 50 mg/kg administered intratumorally every four days for 14 days in the presence of liquid cyanoacrylate by H&E staining based histopathological analysis; format: organism-based; settings: in vivo, other, 336 h, route it(Intratumoral), time 14 day
[14] = tested on: 4T1; test: Antitumor activity against mouse 4T1 cells implanted in Balb/c mouse assessed as nuclei disappearance at 50 mg/kg administered intratumorally every four days for 14 days in the presence of liquid cyanoacrylate; format: functional, organism-based; settings: route it(Intratumoral), time 14.0 day
[15] = Toxicity in Balb/c mouse implanted with mouse 4T1 cells assessed as kidney lesions at 50 mg/kg administered intratumorally every four days for 14 days in the presence of liquid cyanoacrylate by H&E staining based histopathological analysis; format: organism-based; settings: in vivo, other, 336 h, route it(Intratumoral), time 14 day
[16] = tested on: Mus musculus; test: Protection of Balb/c mouse spleen implanted with mouse 4T1 cells at 50 mg/kg administered intratumorally every four days for 14 days in the presence of liquid cyanoacrylate; format: functional, organism-based; settings: route it(Intratumoral), time 14.0 day
[17] = tested on: 4T1; test: Antitumor activity against mouse 4T1 cells implanted in Balb/c mouse assessed as TUNEL positive cells at 50 mg/kg administered intratumorally every four days for 14 days in the presence of liquid cyanoacrylate by TUNEL staining analysis; format: functional; settings: route it(Intratumoral), time 14 day
[18] = tested on: 4T1; test: Antitumor activity against mouse 4T1 cells implanted in Balb/c mouse assessed as tumor growth inhibition by measuring T/C ratio at 50 mg/kg administered intratumorally every four days for 14 days in the presence of liquid cyanoacrylate; format: functional; settings: route it(Intratumoral), time 14 day

SMILES	IC50 [1] [nM]	IC50 [2] [nM]	IC50 [3] [nM]	further results
Cc1[nH]c2ccccc2c1C1=C(Cl)C(=O)C(Cl)=C(NCCOc2ccccc2)C1=O	> 10000	710	> 10000	
Cc1[nH]c2ccccc2c1C1=C(Cl)C(=O)C(N2CCN(C=O)CC2)=C(Cl)C1=O	740	200	370	
COc1ccc(/C=C\c2cc(OC)c(OC)c(OC)c2)cc1O [COMBRETASTATIN A4]				Activity [4]: 91.6%; Activity [5]: 25.55%; Activity [6]: 8.4%; Activity [7]: 8%
Cc1[nH]c2ccccc2c1C1=C(Cl)C(=O)C(N2CCOCC2)=C(Cl)C1=O	250	200	170	Activity [4]: 81.89%; Activity [5]: 31.74%; Activity [6]: 10.44%; Activity [7]: 7.67%
COC(=O)/C=C/C(=O)OCCN1CCN(C2=C(Cl)C(=O)C(c3c(C)[nH]c4ccccc34)=C(Cl)C2=O)CC1	330	140	320	
Cn1c(CCCC(=O)O)nc2cc(N(CCCl)CCCl)ccc21 [BENDAMUSTINE]	> 20000			
Cc1[nH]c2ccccc2c1C1=C(Cl)C(=O)C(Cl)=C(N2CCN(C=O)CC2)C1=O	350	120	170	
O=C1c2c(O)ccc(O)c2C(=O)c2c(NCCNCCO)ccc(NCCNCCO)c21 [MITOXANTRONE]				Activity [8]: 77.86%; inhibition in vivo at 50 mg/kg [9]: 59.8%; Activity [10]: Non-Toxic; Activity [11]: Non-Toxic; Activity [12]: Non-Toxic; Activity [13]: Non-Toxic; Activity [14]: Active; Activity [15]: Non-Toxic; Activity [16]: Active; Activity [17]: 93.24%; T/C [18]: 32%
C#CCNC1=C(Cl)C(=O)C(c2c(C)[nH]c3ccccc23)=C(Cl)C1=O	920	170	670	
Cc1[nH]c2ccccc2c1C1=C(Cl)C(=O)C(NCCOc2ccccc2)=C(Cl)C1=O	5050	730	7090	
COC(=O)/C=C/C(=O)OCCNC1=C(Cl)C(=O)C(Cl)=C(c2c(C)[nH]c3ccccc23)C1=O	110	140	340	

Continued, in another order:

IC50 [1] [nM]	IC50 [2] [nM]	IC50 [3] [nM]	SMILES	further results
220	110	150	COC(=O)/C=C/C(=O)OCCNC1=C(Cl)C(=O)C(c2c(C)[nH]c3ccccc23)=C(Cl)C1=O	
220	260	8380	COC(=O)/C=C/C(=O)OCCN1CCN(C2=C(Cl)C(=O)C(Cl)=C(c3c(C)[nH]c4ccccc34)C2=O)CC1	
> 10000	620	> 10000	Cc1[nH]c2ccccc2c1C1=C(Cl)C(=O)C(Cl)=C(NCCc2cc3ccccc3[nH]2)C1=O	
6300	290	720	COc1ccc(CCNC2=C(Cl)C(=O)C(c3c(C)[nH]c4ccccc34)=C(Cl)C2=O)cc1OC	
190	190	160	C#CCNC1=C(Cl)C(=O)C(Cl)=C(c2c(C)[nH]c3ccccc23)C1=O	
3110	830	440	Cc1[nH]c2ccccc2c1C1=C(Cl)C(=O)C(NCCc2cc3ccccc3[nH]2)=C(Cl)C1=O	
9730	1490	8640	COc1ccc(CCNC2=C(Cl)C(=O)C(Cl)=C(c3c(C)[nH]c4ccccc34)C2=O)cc1OC	
